The compounds below were run on PLC-PRF-5 cells (assay: Inhibition of proliferation of PLC-PRF-5 cells (ATPlite)). Settings: Homo sapiens, PLC-PRF-5, PLC-PRF-5 cells; read-out: PLC-PRF-5 cell proliferation IC50.
Assay type: cell-based
Description: Inhibitory Activity of Compounds to the Proliferation of PLC-PRF-5 Cells
• [experimental Method]: Use PerKinElmer's ATPlite™ Luminescence ATP Detection Assay System to evaluate the inhibitory activity of compounds to the proliferation of PLC-PRF-5 cells. • [Instruments]: ENVISION plate reader (PerKinElmer) and centrifuge (Thermo Scientific, Sorvall ST16R) • [material]: PLC-PRF-5 cells (ATCC), 96-well plate (Nunc, #165305), DMEM medium (Gibco, #11965-092), PBS (Invitrogen, #10010023), fetal bovine serum (Gibco, #16000044), DMSO (Sigma, #D2650), ATPlite™ Luminescence ATP Detection Assay System (PerkinElmer, #6016949), purified water (Millipore, type: Milli-Q). • [Protocol]: Grow PLC-PRF-5 cells in DMEM supplemented with 10% FBS. When the cells reach 80% confluency, collect cells by trypsinization and centrifugation at 800 rpm for 3 min. Resuspend cells with appropriate volume of medium and count cell numbers. Adjust cell concentration to 50000 cells/mL, and split 160 μL cell suspension per well into 96-well plates. Transfer the plates into cell culture incubator (37° C., 5% CO2) and incubate cells for 2 hrs. Prepare compound serial dilutions in culture medium with total 8 compound concentrations at 3-fold serial dilutions (the final top concentration starts from 30 μM). Dispense 40 μL of each test compound dilution into corresponding wells with DMSO at 0.3% final concentration. Continue incubating cells in cell culture incubator for additional 96 hrs at 37° C., 5% CO2. Discard culture medium, and wash cells once with PBS. Add 50 μL cell lysis buffer per well and shake plates for 5 min at room temperature to ensure complete lysis of cells. Then add 50 μL of substrate solution and shake plates for 1 min at room temperature. Allow the plates to incubate at room temperature for 5 min, followed by recording the luminescence signals using Envision, and subsequent data analysis. • [Samples]: Compounds in the examples and Sorafenib (positive control) • [Data analysis]: Use CBIS data analysis software to calculate IC50 values

Structure (SMILES) | IC50 [nM]
CC(F)(F)c1cccc(NC(=O)Nc2ccc(Oc3cc(NC(=O)C4CC4)ncn3)c(F)c2)c1 [Exe. 103] | 373
CC(F)(F)c1ccc(F)c(NC(=O)Nc2ccc(Oc3cc(NC(=O)C4CC4)ncn3)c(F)c2)c1 [Exe. 104] | 100
CC(F)(F)c1cc(NC(=O)Nc2ccc(Oc3cc(NC(=O)C4CC4)ncn3)c(F)c2)ccc1F [Exe. 106] | 850
Cc1cc(NC(=O)Nc2ccc(F)c(C(F)(F)F)c2)ccc1Oc1cc(NC(=O)C2CC2)ncn1 [Exe. 111] | 2630
Cc1cc(NC(=O)Nc2cccc(C(F)(F)F)c2)ccc1Oc1cc(NC(=O)C2CC2)ncn1 [Exe. 112] | 2000
Cc1cc(NC(=O)Nc2cccc(OC(F)(F)F)c2)ccc1Oc1cc(NC(=O)C2CC2)ncn1 [Exe. 113] | 781
Cc1cc(NC(=O)Nc2ccc(Cl)c(OC(F)(F)F)c2)ccc1Oc1cc(NC(=O)C2CC2)ncn1 [Exe. 114] | 4600
Cc1cc(NC(=O)Nc2cc(F)cc(C(C)(F)F)c2)ccc1Oc1cc(NC(=O)C2CC2)ncn1 [Exe. 115] | 1310
Cc1cc(NC(=O)Nc2ccc(Cl)c(C(C)(F)F)c2)ccc1Oc1cc(NC(=O)C2CC2)ncn1 [Exe. 117] | 2930
O=C(Nc1cccc(Oc2cc(NC(=O)C3CC3)ncn2)c1)Nc1ccc(F)c(C(F)(F)F)c1 [Exe. 119] | 18800
O=C(Nc1cccc(Oc2cc(NC(=O)C3CC3)ncn2)c1)Nc1cccc(C(F)(F)F)c1 [Exe. 120] | > 30000
O=C(Nc1cccc(Oc2cc(NC(=O)C3CC3)ncn2)c1)Nc1cccc(OC(F)(F)F)c1 [Exe. 121] | > 30000
CC(F)(F)c1cc(NC(=O)Nc2cccc(Oc3cc(NC(=O)C4CC4)ncn3)c2)ccc1Cl [Exe. 122] | 22000
CN(c1ccc(NC(=O)Nc2cccc(C(F)(F)F)c2)c(F)c1)c1cc(NC(=O)C2CC2)ncn1 [Exe. 123] | 8380
O=C(Nc1ccc(Oc2ccnc(NC(=O)C3CC3)c2)nc1)Nc1cc(N2CCC(F)CC2)cc(C(F)(F)F)c1 [Exe. 129] | 2260
CN1CCC(c2cc(NC(=O)Nc3ccc(Oc4ccnc(NC(=O)C5CC5)c4)cn3)cc(C(F)(F)F)c2)CC1 [Exe. 134] | 199
O=C(Nc1cccc(C(F)(F)F)c1)Nc1ccc(Oc2ccnc(NC(=O)C3CC3)c2)cn1 [Exe. 135] | 100

These compounds were tested against KDR kinase (790-1356 AA) (Homo sapiens (Human), UniProt P35968) (assay: Inhibitory activity at KDR kinase (Lance Ultra Ulight-TK assay)). Settings: not given.
Assay type: biochemical
Protocol: Inhibitory Activity of Compounds at KDR Kinase
• [Experimental method]: Use Lance@Ultra Ulight™-TK assay kit from PerKinElmer to evaluate the inhibitory activity of compounds at KDR kinase. • [Instrument]: PerKinElmer's ENVISION plate reader • [Materials]: Optiplate-384 well plate (PerKinElmer), kinase buffer (50 mM Hepes pH7.5, 0.25 mM EGTA, 2 mM DTT, 0.01% Tween 20, 10 mM Mg^2+, 0.5 mM Mn^2+), KDR kinase (790-1356 AA, Crown Bioscience), KDR kinase substrate (PerKinElmer catalogue # TRF0127-M), Lance@Eu-W1024-anti-phosphotyrosine (PT66) (PerKinElmer, catalogue #AD0068), ATP (Invitrogen), DMSO (Sigma, catalogue #34869), purified water (Millipore, type: Milli-Q). • [Study conditions]: Mix KDR (final concentration: 20 nM) and compound (final DMSO: 0.5%), pre-incubate for 20 min at 30° C.; then add ATP (final concentration: 90 μM) and the substrate (final concentration […]). React for 2 hrs at 30° C. After the reaction, add antibody and reaction for 60 min at 30° C. Read the plate (615 nm, 665 nm), calculate the ratio of the value at 665 nm vs 615 nm and analyze the data. • [Samples]: Compounds in the examples and Sorafenib (positive control) • [Data Analysis]: Use CBIS data analysis software to calculate IC50 values

Chain of KDR kinase (790-1356 AA) (P35968 790-1356): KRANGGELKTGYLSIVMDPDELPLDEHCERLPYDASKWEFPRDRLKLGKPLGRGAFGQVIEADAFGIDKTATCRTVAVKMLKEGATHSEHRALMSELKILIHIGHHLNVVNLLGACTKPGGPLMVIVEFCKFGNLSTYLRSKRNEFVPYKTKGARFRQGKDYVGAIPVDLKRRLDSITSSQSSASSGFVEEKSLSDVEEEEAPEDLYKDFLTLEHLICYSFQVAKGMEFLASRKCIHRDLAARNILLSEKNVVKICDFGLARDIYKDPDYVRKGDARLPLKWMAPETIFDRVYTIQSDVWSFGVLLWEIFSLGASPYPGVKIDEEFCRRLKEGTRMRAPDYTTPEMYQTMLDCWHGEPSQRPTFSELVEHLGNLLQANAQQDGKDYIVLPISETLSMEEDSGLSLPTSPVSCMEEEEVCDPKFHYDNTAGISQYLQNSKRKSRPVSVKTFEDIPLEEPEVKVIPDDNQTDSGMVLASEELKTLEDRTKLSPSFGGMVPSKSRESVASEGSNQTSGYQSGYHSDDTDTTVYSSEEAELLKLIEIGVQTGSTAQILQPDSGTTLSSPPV

Structure (SMILES) | IC50 [nM]
CC(F)(F)c1ccc(F)c(NC(=O)Nc2ccc(Oc3cc(NC(=O)C4CC4)ncn3)c(F)c2)c1 [Exe. 104] | 10.2
Cc1cc(NC(=O)Nc2ccc(Cl)c(OC(F)(F)F)c2)ccc1Oc1cc(NC(=O)C2CC2)ncn1 [Exe. 114] | 9.8
Cc1cc(NC(=O)Nc2cc(F)cc(C(C)(F)F)c2)ccc1Oc1cc(NC(=O)C2CC2)ncn1 [Exe. 115] | 9.5
CN(c1ccc(NC(=O)Nc2cccc(C(F)(F)F)c2)c(F)c1)c1cc(NC(=O)C2CC2)ncn1 [Exe. 123] | 7.4
O=C(Nc1ccc(Oc2ccnc(NC(=O)C3CC3)c2)nc1)Nc1cc(N2CCC(F)CC2)cc(C(F)(F)F)c1 [Exe. 129] | 14.2
CN1CCC(c2cc(NC(=O)Nc3ccc(Oc4ccnc(NC(=O)C5CC5)c4)cn3)cc(C(F)(F)F)c2)CC1 [Exe. 134] | 7.8
O=C(Nc1cccc(C(F)(F)F)c1)Nc1ccc(Oc2ccnc(NC(=O)C3CC3)c2)cn1 [Exe. 135] | 5.8

Continued, values first:

IC50 [nM] | Structure (SMILES)
12.4 | CC(F)(F)c1cccc(NC(=O)Nc2ccc(Oc3cc(NC(=O)C4CC4)ncn3)c(F)c2)c1 [Exe. 103]
10.4 | CC(F)(F)c1cc(NC(=O)Nc2ccc(Oc3cc(NC(=O)C4CC4)ncn3)c(F)c2)ccc1F [Exe. 106]
7 | Cc1cc(NC(=O)Nc2ccc(F)c(C(F)(F)F)c2)ccc1Oc1cc(NC(=O)C2CC2)ncn1 [Exe. 111]
14.5 | Cc1cc(NC(=O)Nc2cccc(C(F)(F)F)c2)ccc1Oc1cc(NC(=O)C2CC2)ncn1 [Exe. 112]
8.1 | Cc1cc(NC(=O)Nc2cccc(OC(F)(F)F)c2)ccc1Oc1cc(NC(=O)C2CC2)ncn1 [Exe. 113]
12 | Cc1cc(NC(=O)Nc2ccc(Cl)c(C(C)(F)F)c2)ccc1Oc1cc(NC(=O)C2CC2)ncn1 [Exe. 117]
14.9 | O=C(Nc1cccc(Oc2cc(NC(=O)C3CC3)ncn2)c1)Nc1ccc(F)c(C(F)(F)F)c1 [Exe. 119]
12 | O=C(Nc1cccc(Oc2cc(NC(=O)C3CC3)ncn2)c1)Nc1cccc(C(F)(F)F)c1 [Exe. 120]
11.5 | O=C(Nc1cccc(Oc2cc(NC(=O)C3CC3)ncn2)c1)Nc1cccc(OC(F)(F)F)c1 [Exe. 121]
8.7 | CC(F)(F)c1cc(NC(=O)Nc2cccc(Oc3cc(NC(=O)C4CC4)ncn3)c2)ccc1Cl [Exe. 122]

Each compound was assayed on pERK in MDA-MB-231 cells (assay: Inhibitory activity at pERK (In Cell Western, MDA-MB-231 cells)). Settings: Homo sapiens, MDA-MB-231, MDA-MB-231 cells; read-out: MDA-MB-231 pERK IC50.
Assay type: cell-based
Protocol: Inhibitory Activity of Compounds at pERK
When the cells reach 80% confluency, collect cells by trypsinization and centrifugation at 800 rpm for 3 minutes. Resuspend cells with appropriate volume of medium and count cell numbers. Adjust cell concentration to 70000 cells/mL, and split 100 μL cell suspension per well into 96-well plates. Transfer the plates into cell culture incubator (37° C., 5% CO2) and incubate cells overnight. Discard the medium, wash with PBS once, Prepare compound serial dilutions in culture medium with total 8 compound concentrations at 3-fold serial dilutions (the final top concentration starts from 30 μM). Dispense 75 μL DMEM medium (with 0.1% BSA) and 25 μL of each test compound dilution into corresponding wells with DMSO at 0.3% final concentration. Continue incubating cells in cell culture incubator for additional 2 hrs at 37° C., 5% CO2. Discard culture medium, and wash cells once with PBS. Add 100 μL of 4% formaldehyde solution to each well and fix for 20 min. Discard the formaldehyde, then add 100 μL ice-cold 100% methanol at 4° C. for 20 min. Discard methanol, wash with PBS three times. Add to each well 100 μL of 2% BSA solution, seal for 30 min at room temperature. Discard the BSA solution, add to each well 50 μL of the 1st antibody solution (prepared with 2% BSA, 1:250 dilution), incubate at 4° C. overnight. Discard the 1^St antibody solution, wash with PBS four times. Add to each well […] the 2nd antibody solution (prepared with 1% BSA, 1:1000 dilution), incubate at room temperature for 1 hr. Discard the 2nd antibody solution, wash with PBS four times, add to each well 100 μL PI solution (1.5 μM), incubate at room temperature for 30 min. Use Acumen (TPP) to measure the fluorescence. • [Samples]: Compounds in the examples and sorafenib (positive control) • [Data Analysis]: Use CBIS data analysis software to calculate IC50 values

Structure (SMILES) | IC50 [nM]
CC(F)(F)c1ccc(F)c(NC(=O)Nc2ccc(Oc3cc(NC(=O)C4CC4)ncn3)c(F)c2)c1 [Exe. 104] | 252
Cc1cc(NC(=O)Nc2ccc(Cl)c(OC(F)(F)F)c2)ccc1Oc1cc(NC(=O)C2CC2)ncn1 [Exe. 114] | 37
Cc1cc(NC(=O)Nc2cc(F)cc(C(C)(F)F)c2)ccc1Oc1cc(NC(=O)C2CC2)ncn1 [Exe. 115] | 300
CN(c1ccc(NC(=O)Nc2cccc(C(F)(F)F)c2)c(F)c1)c1cc(NC(=O)C2CC2)ncn1 [Exe. 123] | 703
O=C(Nc1ccc(Oc2ccnc(NC(=O)C3CC3)c2)nc1)Nc1cc(N2CCC(F)CC2)cc(C(F)(F)F)c1 [Exe. 129] | 105
CN1CCC(c2cc(NC(=O)Nc3ccc(Oc4ccnc(NC(=O)C5CC5)c4)cn3)cc(C(F)(F)F)c2)CC1 [Exe. 134] | 33
O=C(Nc1cccc(C(F)(F)F)c1)Nc1ccc(Oc2ccnc(NC(=O)C3CC3)c2)cn1 [Exe. 135] | 208

The next lines start with the values.

IC50 [nM] | Structure (SMILES)
300 | CC(F)(F)c1cccc(NC(=O)Nc2ccc(Oc3cc(NC(=O)C4CC4)ncn3)c(F)c2)c1 [Exe. 103]
465 | CC(F)(F)c1cc(NC(=O)Nc2ccc(Oc3cc(NC(=O)C4CC4)ncn3)c(F)c2)ccc1F [Exe. 106]
41 | Cc1cc(NC(=O)Nc2ccc(F)c(C(F)(F)F)c2)ccc1Oc1cc(NC(=O)C2CC2)ncn1 [Exe. 111]
85 | Cc1cc(NC(=O)Nc2cccc(C(F)(F)F)c2)ccc1Oc1cc(NC(=O)C2CC2)ncn1 [Exe. 112]
54 | Cc1cc(NC(=O)Nc2cccc(OC(F)(F)F)c2)ccc1Oc1cc(NC(=O)C2CC2)ncn1 [Exe. 113]
27 | Cc1cc(NC(=O)Nc2ccc(Cl)c(C(C)(F)F)c2)ccc1Oc1cc(NC(=O)C2CC2)ncn1 [Exe. 117]
184 | O=C(Nc1cccc(Oc2cc(NC(=O)C3CC3)ncn2)c1)Nc1ccc(F)c(C(F)(F)F)c1 [Exe. 119]
617 | O=C(Nc1cccc(Oc2cc(NC(=O)C3CC3)ncn2)c1)Nc1cccc(C(F)(F)F)c1 [Exe. 120]
252 | O=C(Nc1cccc(Oc2cc(NC(=O)C3CC3)ncn2)c1)Nc1cccc(OC(F)(F)F)c1 [Exe. 121]
133 | CC(F)(F)c1cc(NC(=O)Nc2cccc(Oc3cc(NC(=O)C4CC4)ncn3)c2)ccc1Cl [Exe. 122]
